Data published in patent EP4473972A1, “COMBINATIONS COMPRISING AN ATR INHIBITOR WITH SYNERGISTIC EFFECT AGAINST GLIOMAS” (Eberhard-Karls-Universität Tübingen, priority 2023, dated 2024).

How the values were obtained:
[1] = system: human and murine cell lines; experiment: Anti-glioma activity in vitro (Figure 1 b); type: cell-based
Procedure: The inventors seeded 5,000 or 10,000 cells, respectively, on day one, treated the next day in serum-free medium and incubated for up to 72 h. Subsequently, they measured cell viability using CellTiterBlue reagent (Promega, Madison, WI, US) according to manufacturer's instructions with a GloMax (Promega, Madison, Wl, US). The inventors normalized measurements to untreated cells. Cells were seeded the day before treatment. The inventors treated the cells in the indicated concentrations in serum-free medium for 24 h after which they changed the medium back to medium containing FCS, followed by a 7 to 21 day incubation time. The inventors used crystal violet (0.5% w/v) to stain colonies and analyzed the area coverage using the ImageJ software Plugln ColonyArea. Measurements were normalized to respective vehicle control wells.

GL261 cells = experiment: Cell cycle analysis (propidium iodide flow cytometry); type: cell-based, murine; details: 72 h
Procedure: The inventors seeded the cells on day one and treated them on the next day. After 72 h, they detached the cells and stained them with propidium iodide solution (50 µg/mL propidium iodide (Thermo Fisher Scientific, Waltham, MA, US), 0.2% Triton X-100 (Roth, Karlsruhe, Germany), 100 µg RNase (Thermo Fisher Scientific, Waltham, MA, US), 1 g/L glucose in PBS (phosphate buffered saline) (Gibco, Carlsbad, CA, US). Flow cytometry was done using a MACSQuant Analyzer 10 (Miltenyi Biotec, Bergisch Gladbach, Germany). The inventors analyzed the acquired data with the FlowJo software (Beckton, Dickinson & Company, Franklin Lakes, NJ, US).

LN229 and LNZ308 cells = experiment: DigiWest Multiplex Protein Analysis, across both cell lines; type: cell-based, human; details: 72 h
Procedure: (§1) After 72 h of AZD6738 treatment, the inventors detached and counted the cells and subsequently snap froze them in liquid nitrogen. For protein preparation, they kept the cells on ice and added 20-30 µL of lysis buffer (LDS Lysis Buffer (Life Technologies, Carlsbad, CA, USA), supplemented with reducing agent (Thermo Fisher Scientific, Waltham, MA, USA) and protease- (Roche Diagnostics GmbH, Mannheim, Germany) and phosphatase-inhibitor (Roche)). Proteins were denatured by heating to 95°C for 10 min before the lysates were transferred to QiaShredder Eppendorf tubes (Eppendorf, Hamburg, Germany). After centrifugation (16,000g, 5 min, RT), eluates were stored at -80°C until further use. Protein quantification was performed using in-gel staining. 1 µL of each original lysate was diluted 1:10 (v/v) in lysis buffer. The respective aliquots were denatured for 10 mins at 70°C and 10 µL were run in a NuPAGE 4-12% Bis-Tris precast gel (Thermo Fisher Scientific) according to the manufacturer's instructions. The gel was washed with water and proteins were stained with BlueBandit (VWR, Darmstadt, Germany) for 1 h. The gel was de-stained over night with ddH2O before detection on a LI-COR (LI-COR, Bad Homburg, Germany) instrument. Analysis and protein quantification was performed using ImageStudio.
The DigiWest analysis was performed as described in the art. In brief, the inventors loaded 10 µg of cellular protein on an SDS-polyacrylamide gel and size-separated them using the commercial NuPAGE system (Life Technologies). Size-separated proteins were blotted onto a PVDF membrane and biotinylated on the membrane using NHS-PEG12-Biotin (50 µM) in PBST for 1 h. After drying of the membrane, the samples lanes were cut into 96 strips of 0.5 mm width using an automated cutting plotter (Silhouette America, West Orem, UT, USA) each corresponding to a defined molecular weight fraction. Each of the strips was placed in one well of a 96-well plate and 10 µl elution buffer (8 M urea, 1% Triton-X100 in 100 mM Tris-HCl pH 9.5) was added. The eluted proteins were diluted with 90 µl of dilution buffer (5% BSA in PBS, 0.02% sodium azide, 0.05% Tween-20) and each of the protein fractions was incubated with 1 distinct magnetic color-coded bead population (Luminex, Austin, USA) coated with neutravidin. The biotinylated proteins bind to the neutravidin beads such that each bead color represents proteins of one specific molecular weight fraction. All 96 protein loaded bead populations were mixed resulting in reconstitution of the original lane. […] Beads were washed twice prior to readout on a Luminex FlexMAP 3D.
For quantification of the antibody specific signals, we used the DigiWest Analyzer software; it automatically identifies peaks of appropriate molecular weight and calculates the peak area. […]

LN229 cells = experiment: DigiWest Multiplex Protein Analysis; type: cell-based, human; details: LN229, 72 h
Procedure: as §1
(§2) The DigiWest analysis was performed as described in the art. In brief, the inventors loaded 10 µg of cellular protein on an SDS-polyacrylamide gel and size-separated them using the commercial NuPAGE system (Life Technologies). Size-separated proteins were blotted onto a PVDF membrane and biotinylated on the membrane using NHS-PEG12-Biotin (50 µM) in PBST for 1 h. After drying of the membrane, the samples lanes were cut into 96 strips of 0.5 mm width using an automated cutting plotter (Silhouette America, West Orem, UT, USA) each corresponding to a defined molecular weight fraction. Each of the strips was placed in one well of a 96-well plate and 10 µl elution buffer (8 M urea, 1% Triton-X100 in 100 mM Tris-HCl pH 9.5) was added. The eluted proteins were diluted with 90 µl of dilution buffer (5% BSA in PBS, 0.02% sodium azide, 0.05% Tween-20) and each of the protein fractions was incubated with 1 distinct magnetic color-coded bead population (Luminex, Austin, USA) coated with neutravidin. The biotinylated proteins bind to the neutravidin beads such that each bead color represents proteins of one specific molecular weight fraction. All 96 protein loaded bead populations were mixed resulting in reconstitution of the original lane. Such a beadmix was sufficient for about 150 individual antibody incubations. Aliquots of the DigiWest bead-mixes (about 1/200th per well) were added to 96 well plates containing 50 µl assay buffer (Blocking Reagent for ELISA (Roche, Rotkreuz, Switzerland) supplemented with 0.2% milk powder, 0.05% Tween-20 and 0.02% sodium azide) and different diluted antibodies were added to the wells. After overnight incubation at 15°C in a shaker, the bead-mixes were washed twice with PBST and species-specific PE-labelled (Phycoerythrin) secondary antibodies (Dianova, Hamburg, Germany) were added and incubated for 1 hour at 23°C. Beads were washed twice prior to readout on a Luminex FlexMAP 3D.
(§3) For quantification of the antibody specific signals, we used the DigiWest Analyzer software; it automatically identifies peaks of appropriate molecular weight and calculates the peak area. Signal intensity was normalized to the total amount of protein loaded onto one lane. The software package MEV 4.9.0 was used for statistical analysis along with Graph Pad Prism (Version 9.0.0). For all statistical tests, a p-value <0.05 was considered significant.

LNZ308 cells = experiment: DigiWest Multiplex Protein Analysis; type: cell-based, human; details: LNZ308, 72 h
Procedure: as §1, §2, §3

[2] = after continuous dosing; cited from earlier work

SMILES: C[C@@H]1COCCN1c1cc(C2([S@](C)(=N)=O)CC2)nc(-c2cc[nH]c3nccc2-3)n1 [AZD6738, ceralasertib]
- anti-glioma activity in vitro [1]: significant anti-glioma activity
- cell cycle alterations (GL261 cells): accumulation in S phase
- NF-κB (LN229 and LNZ308 cells; across both cell lines): significant upregulation
- markers for ATR target engagement such as pATR, Chk2, and Ku80 (LN229 and LNZ308 cells; across both cell lines): significant reduction
- Cleaved PARP (LN229 and LNZ308 cells; both cell lines): upregulated
- pH2A.X (LN229 and LNZ308 cells; both cell lines): Upregulation
- CDC25C and pHistH3 (Ser10) (LN229 cells): downregulated
- Survivin (BIRC5) (LN229 cells): upregulated
- p53, p21 and Bax (LN229 cells): upregulation
- pAkt (LN229 cells): downregulation
- p16 (LNZ308 cells): accumulation
- pCDK2 (Thr160) protein levels (LNZ308 cells): reduced
- adverse events [2]: bone marrow suppression
